The text below walks through data of patent US20250081967A1, “PESTICIDALLY ACTIVE HETEROCYCLIC DERIVATIVES WITH SULFOXIMINE CONTAINING SUBSTITUENTS” (SYNGENTA CROP PROTECTION AG, priority 2021, published 2025).

Common to all, as to assay type: in vivo
The subject of data set [1] is Myzus persicae. As to the kind of experiment: Activity against Myzus persicae (green peach aphid), feeding/contact activity, sunflower leaf discs. Particulars: for mortality at 200 ppm: 144 h, application rate 200 ppm, feeding/contact, 6 days after infestation. The protocol: Example B4: Activity Against Myzus persicae (Green Peach Aphid) Feeding/Contact Activity
Sunflower leaf discs were placed on agar in a 24-well microtiter plate and sprayed with aqueous test solutions prepared from 10′000 ppm DMSO stock solutions. After drying, the leaf discs were infested with an aphid population of mixed ages. The samples were assessed for mortality 6 days after infestation.

Data set [2] relates to Myzus persicae. The experiment in a line: Activity against Myzus persicae (green peach aphid), systemic activity, pea seedlings. Conditions: Myzus persicae. As to the method:
Example B5: Activity Against Myzus persicae (Green Peach Aphid) Systemic Activity
Roots of pea seedlings infested with an aphid population of mixed ages were placed directly in the aqueous test solutions prepared from 10′000 DMSO stock solutions. The samples were assessed for mortality 6 days after placing seedlings in test solutions.

Another data set relates to Bemisia tabaci. As to the kind of experiment: Activity against Bemisia tabaci (cotton white fly), cotton leaf discs. Particulars: foliar; for mortality at 200 ppm: 144 h, application rate 200 ppm, adult white flies, 6 days after incubation; for mortality at 12.5 ppm: concentration 12.5 ppm. As to the method:
Example B6: Activity Against Bemisia tabaci (Cotton White Fly)
Cotton leaf discs were placed on agar in 24-well microtiter plates and sprayed with aqueous test solutions prepared from 10′000 ppm DMSO stock solutions. After drying the leaf discs were infested with adult white flies. The samples were checked for mortality 6 days after incubation.

The test system of another data set is Diabrotica balteata. As to the kind of experiment: Activity against Diabrotica balteata (corn root worm), maize sprouts. Particulars: for mortality at 50 ppm: concentration 50 ppm. As to the method:
Example B3: Activity Against Diabrotica Balteata (Corn Root Worm)
Maize sprouts placed onto an agar layer in 24-well microtiter plates were treated with aqueous test solutions prepared from 10′000 ppm DMSO stock solutions by spraying. After drying, the plates were infested with L2 larvae (6 to 10 per well). The samples were assessed for mortality and growth inhibition in comparison to untreated samples 4 days after infestation.

The next data set relates to Spodoptera littoralis. The experiment in a line: Activity against Spodoptera littoralis (Egyptian cotton leaf worm), cotton leaf discs. Conditions: foliar, 72 h, application rate 200 ppm, L1 larvae, 3 days after infestation, read-out: control (mortality, anti-feeding effect or growth inhibition). The protocol: Example B1: Activity Against Spodoptera littoralis (Egyptian Cotton Leaf Worm)
Cotton leaf discs were placed onto agar in 24-well microtiter plates and sprayed with aqueous test solutions prepared from 10′000 ppm DMSO stock solutions. After drying the leaf discs were infested with five L1 larvae. The samples were assessed for mortality, anti-feeding effect, and growth inhibition in comparison to untreated samples 3 days after infestation. Control of Spodoptera littoralis by a test sample is given when at least one of the categories mortality, anti-feedant effect, and growth inhibition is higher than the untreated sample.

Where [3] appears, read: 144 h, test rate 24 ppm, systemic, 6 days after placing seedlings in test solutions.
The mark [4] stands for this setting: Myzus persicae, foliar, Myzus persicae (feeding/contact), concentration 3.125 ppm.
The mark [5] stands for this setting: Myzus persicae (systemic), concentration 24 ppm.

Take `CCS(=N)(=O)c1cc(C(C)(C)C#N)cnc1-c1nc2cc(C(F)(F)F)ncc2n1C` (racemic) [Compound P4, 2-[5-(ethylsulfonimidoyl)-6-[3-methyl-6-(trifluoromethyl)imidazo[4,5-c]pyridin-2-yl]-3-pyridyl]-2-methyl-propanenitrile]: the mortality at 200 ppm was no less than 80% in the data set on Myzus persicae [1] (Myzus persicae, foliar) and no less than 80% with Bemisia tabaci. Moreover, the mortality at 24 ppm in the data set with Myzus persicae [2] (setting [3]) is no less than 80%.

`CCS(=N)(=O)c1cc(C2(C#N)CC2)cnc1-c1nc2cc(C(F)(F)F)cnc2n1C` (racemic) [Described in WO19/234158 as compound P6, reference compound] displayed a mortality at 12.5 ppm with Bemisia tabaci of 50%.

Turning to `CCS(=N)(=O)c1cc(C2(C#N)CC2)ccc1-c1nc2cc(C(F)(F)F)ncc2n1C` (racemic) [Described in WO19/234158 as compound P13, reference compound], the mortality at 50 ppm in the data set on Diabrotica balteata is 0%. In the data set with Bemisia tabaci, this compound showed a mortality at 12.5 ppm of 0%.

`CCn1c(C(F)(F)F)cc2nc(-c3ncc(C4(C#N)CC4)cc3S(=N)(=O)CC)n(C)c2c1=O` (racemic) [Described in WO19/234158 as compound P14, reference compound] gave a mortality at 50 ppm in the data set on Diabrotica balteata of 0%.

In the data set on Diabrotica balteata, `CCS(=N)(=O)c1cc(C2(C#N)CC2)ccc1-c1nc2cc(C(F)(F)F)cnc2n1C` (racemic) [Described in WO19/234158 as compound P15, reference compound] showed a mortality at 50 ppm of 0%.

Compound `CCS(=N)(=O)c1cc(OC(C)(C)C#N)cnc1-c1nc2cc(C(F)(F)F)ncc2n1C` (racemic) [Described in WO20/084075 as compound P1, reference compound] returned a mortality at 50 ppm with Diabrotica balteata of 0%.

Compound `CCS(=N)(=O)c1cc(OC(C)(C)C#N)cnc1-c1nc2cc(C(F)(F)F)nnc2n1C` (racemic) [Described in WO20/084075 as compound P2, reference compound] had a mortality at 12.5 ppm with Diabrotica balteata (concentration 12.5 ppm) of 0%.

As to `CCS(=N)(=O)c1cc(OC(C)(C)C#N)cnc1-c1nc2cc(C(F)(F)F)cnc2n1C` (racemic) [Described in WO20/084075 as compound P3, reference compound], in the data set with Diabrotica balteata, the mortality at 50 ppm is 80%.

`CCS(=O)(=O)c1cc(OC(C)(C)C#N)c(C)nc1-c1nc2cc(C(F)(F)F)cnc2n1C` (racemic) [Described in WO20/084075 as compound P4, reference compound] displayed a mortality at 3.125 ppm in the data set with Diabrotica balteata (concentration 3.125 ppm) of 0%.

Consider `CCS(=N)(=O)c1cc(OC(C)(C)C#N)cnc1-c1cn2cnc(SC(F)(F)F)cc2n1` (racemic) [Described in WO20/084075 as compound P11, reference compound], for which, in the data set with Bemisia tabaci (concentration 50 ppm), the mortality at 50 ppm amounted to 50%.

As for `CCS(=N)(=O)c1cc(C2(C#N)CC2)cnc1-c1nc2cc(C(F)(F)F)ncc2n1C` (racemic) [reference compound], in the data set with Bemisia tabaci, the mortality at 12.5 ppm is 50%.

Consider `CCS(=N)(=O)c1cc(C2(C#N)CC2)cnc1-c1nc2cc(C(F)(F)F)nnc2n1C` (single isomer, unassigned) [Compound P2-B, 1-[5-(ethylsulfonimidoyl)-6-[7-methyl-3-(trifluoromethyl)imidazo[4,5-c]pyridazin-6-yl]-3-pyridyl]cyclopropanecarbonitrile], for which, in the data set on Myzus persicae [1] (Myzus persicae (feeding/contact), concentration 3.125 ppm), the “Mortality (%)” value amounted to 50%.

The compound `CCS(=N)(=O)c1cc(OC(C)(C)C#N)cnc1-c1cn2ccc(C(F)(F)F)cc2n1` (single isomer, unassigned) [Compound P3-A, 2-[[5-(ethylsulfonimidoyl)-6-[7-(trifluoromethyl)imidazo[1,2-a]pyridin-2-yl]-3-pyridyl]oxy]-2-methyl-propanenitrile] displayed a mortality at 200 ppm with Myzus persicae [1] (Myzus persicae, foliar) of no less than 80%. Moreover, in the data set with Spodoptera littoralis, the percent control (mortality, anti-feedant effect or growth inhibition) at 200 ppm is no less than 80%. Besides, in the data set on Diabrotica balteata (96 h, application rate 200 ppm, L2 larvae, 4 days after infestation, read-out: effect in at least one of the two categories (mortality or growth inhibition)), the percent effect (mortality or growth inhibition) at 200 ppm is no less than 80%.

Take `CCS(=N)(=O)c1cc(C(C)(C)C#N)cnc1-c1nc2cc(C(F)(F)F)ncc2n1C` (single isomer, unassigned) [Compound P4-A, 2-[5-(ethylsulfonimidoyl)-6-[3-methyl-6-(trifluoromethyl)imidazo[4,5-c]pyridin-2-yl]-3-pyridyl]-2-methyl-propanenitrile]: the mortality at 200 ppm is no less than 80% with Myzus persicae [1] (Myzus persicae, foliar) and no less than 80% in the data set with Bemisia tabaci. In the data set on Myzus persicae [2] (setting [3]), this compound showed a mortality at 24 ppm of no less than 80%.

In turn, `CCS(=N)(=O)c1cc(OC(C)(C)C#N)cnc1-c1cn2cnc(C(F)(F)F)cc2n1` (single isomer, unassigned) [Compound P11-B, 2-[[5-(ethylsulfonimidoyl)-6-[7-(trifluoromethyl)imidazo[1,2-c]pyrimidin-2-yl]-3-pyridyl]oxy]-2-methyl-propanenitrile] displayed a mortality at 200 ppm in the data set on Bemisia tabaci of no less than 80%.

Turning to `CCS(=N)(=O)c1cc(OC(C)(C)C#N)cnc1-c1nc2cc(C(F)(F)F)nnc2n1C` (single isomer, unassigned) [Compound P15-B, 2-[[5-(ethylsulfonimidoyl)-6-[7-methyl-3-(trifluoromethyl)imidazo[4,5-c]pyridazin-6-yl]-3-pyridyl]oxy]-2-methyl-propanenitrile], in the data set on Diabrotica balteata (concentration 12.5 ppm), the “Mortality (%)” value amounted to 100%.

`CCS(=O)(=O)c1cc(C2(C#N)CC2)cnc1-c1nc2cc(C(F)(F)F)nnc2n1C` [Described in WO18/108726 as compound H-1, reference compound]: the mortality at 3.125 ppm in the data set with Myzus persicae [1] (setting [4]) stood at 80%.

For the compound `CCS(=O)(=O)c1cc(OC(C)(C)C#N)cnc1-c1nc2cc(C(F)(F)F)ncc2n1C` [Described in WO18/197315 as compound P18, reference compound], the mortality at 12.5 ppm in the data set with Myzus persicae [1] (Myzus persicae, foliar, Myzus persicae (feeding/contact), concentration 12.5 ppm) is 65%.

Regarding `CCS(=O)(=O)c1cc(OC(C)(C)C#N)cnc1-c1cn2cnc(C(F)(F)F)cc2n1` [Described in WO18/206348 as compound P13, reference compound], in the data set with Myzus persicae [2] (setting [5]), the mortality at 24 ppm was 0%.

As to `CCS(=O)(=O)c1cc(OC(C)(C)C#N)cnc1-c1nc2cc(C(F)(F)F)cnc2n1C` [Described in WO21/219810 as compound P3, reference compound], in the data set on Myzus persicae [2] (setting [5]), the mortality at 24 ppm amounted to 50%.

Regarding `CCS(=O)(=O)c1cc(OC(C)(C)C#N)c(C)nc1-c1nc2cc(C(F)(F)F)cnc2n1C` [Described in WO21/219810 as compound P4, reference compound], the mortality at 24 ppm with Myzus persicae [2] (setting [5]) came to 0%.

As to `CCS(=O)(=O)c1cc(OC(C)(C)C#N)cnc1-c1nc2cc(C(F)(F)F)n(C3CC3)c(=O)c2n1C` [Described in WO21/219810 as compound P7, reference compound], the mortality at 50 ppm with Myzus persicae [1] (Myzus persicae, foliar, Myzus persicae (contact), concentration 50 ppm) was determined as 0%.

`CCS(=O)(=O)c1cc(C2(C#N)CC2)cnc1-c1nc2cc(C(F)(F)F)ncc2n1C` [reference compound] displayed a mortality at 0.781 ppm in the data set on Myzus persicae [1] (Myzus persicae, foliar, Myzus persicae (feeding/contact), concentration 0.781 ppm) of 0%.

For `CCS(=O)(=O)c1cc(C2(C#N)CC2)ccc1-c1nc2cc(C(F)(F)F)cnc2n1C` [reference compound], in the data set on Myzus persicae [2] (Myzus persicae (systemic), concentration 6 ppm), the mortality at 6 ppm was 0%.

Compound `CCS(=O)(=O)c1cc(C2(C#N)CC2)cnc1-c1nc2cc(C(F)(F)F)cnc2n1C` [reference compound] registered a mortality at 3.125 ppm in the data set with Myzus persicae [1] (setting [4]) of 80%.

What is called mortality is the percentage killed. A high value points to fewer survivors.
